Source: patent US9623031B2, “Compositions, methods and kits for treating cancer” (priority 2011, dated 2017)

Biological target: T1, ligand-binding domain of human PPAPγ fused to yeast GAL4 DNA binding domain (Homo sapiens, UniProt P37231)
T1 construct: expressed in transfected cells; host or cells: HEK293T
Assay: PPARγ reporter assay in HEK293T cells (GAL4 fusion, pGalRE-Luc)
Assay type: cell-based
Settings: 0.01 μM to 1.0 μM

T1 sequence (P37231 238-503 limits assumed): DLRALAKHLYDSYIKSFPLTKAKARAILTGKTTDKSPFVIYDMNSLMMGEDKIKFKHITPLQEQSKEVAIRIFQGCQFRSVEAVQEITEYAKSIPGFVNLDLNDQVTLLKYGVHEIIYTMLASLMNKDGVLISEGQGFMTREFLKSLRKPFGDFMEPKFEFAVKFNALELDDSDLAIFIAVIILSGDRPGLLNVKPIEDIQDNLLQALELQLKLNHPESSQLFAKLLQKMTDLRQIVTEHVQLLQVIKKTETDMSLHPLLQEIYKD

`CC/C=C\C[C@H](O)C/C=C1/C(=O)C=C[C@@H]1C/C=C\CCCC(=O)O` [Δ^12-PGJ3, Δ^12-prostaglandin J3] was tested, and the “PPARγ activation in reporter assay” value was “unable to activate PPARγ”.
